Values joined by “and” are separate entries in the source; they are usually repeats but may differ in a detail not shown here. Identical values can stand only once. Inconclusive results and toxic doses are left out.
Test system: BDF1 mice, B16 melanoma ip, median survival T/C
Assay: NCI In Vivo Anticancer Drug Screen. Data for tumor model B16 Melanoma (intraperitoneal) in B6D2F1 (BDF1) mice
Conditions: endpoint: median survival time, higher = longer survival
Method in brief: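 Read-out: survival or tumor size, given as treated/control ratio. Controls received vehicle only; animals bore transplantable tumors.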

[1] = dose: 100.0 mg/kg/injection, schedule: Q01DX009 (ip), vehicle: Klucel (hydroxypropylcellulose) (HPC)
[2] = dose: 200.0 mg/kg/injection, schedule: Q01DX009 (ip), vehicle: Klucel (hydroxypropylcellulose) (HPC)
[3] = dose: 400.0 mg/kg/injection, schedule: Q01DX009 (ip), vehicle: Klucel (hydroxypropylcellulose) (HPC)
[4] = dose: 6.25 mg/kg/injection, schedule: Q01DX009 (ip), vehicle: saline
[5] = dose: 12.5 mg/kg/injection, schedule: Q01DX009 (ip), vehicle: saline
[6] = dose: 25.0 mg/kg/injection, schedule: Q01DX009 (ip), vehicle: saline
[7] = dose: 50.0 mg/kg/injection, schedule: Q01DX009 (ip), vehicle: saline
[8] = dose: 100.0 mg/kg/injection, schedule: Q01DX009 (ip), vehicle: saline with Tween-80
[9] = dose: 200.0 mg/kg/injection, schedule: Q01DX009 (ip), vehicle: saline with Tween-80
[10] = dose: 400.0 mg/kg/injection, schedule: Q01DX009 (ip), vehicle: saline with Tween-80
[11] = dose: 1.25 mg/kg/injection, schedule: Q01DX009 (ip), vehicle: saline with Tween-80
[12] = dose: 2.5 mg/kg/injection, schedule: Q01DX009 (ip), vehicle: saline with Tween-80
[13] = dose: 12.5 mg/kg/injection, schedule: Q01DX009 (ip), vehicle: saline with Tween-80
[14] = dose: 25.0 mg/kg/injection, schedule: Q01DX009 (ip), vehicle: saline with Tween-80
[15] = dose: 50.0 mg/kg/injection, schedule: Q01DX009 (ip), vehicle: saline with Tween-80
[16] = dose: 12.5 mg/kg/injection, schedule: Q01DX009 (ip), vehicle: Klucel (hydroxypropylcellulose) (HPC)
[17] = dose: 25.0 mg/kg/injection, schedule: Q01DX009 (ip), vehicle: Klucel (hydroxypropylcellulose) (HPC)
[18] = dose: 50.0 mg/kg/injection, schedule: Q01DX009 (ip), vehicle: Klucel (hydroxypropylcellulose) (HPC)

Oc1ccc(SCc2ccc(NCc3ccccc3)cc2)cc1
T/C (dose: 12.5 mg/kg/injection, schedule: Q01DX009 (ip), vehicle: other): 92 % of control
T/C (dose: 12.5 mg/kg/injection, schedule: Q01DX009 (ip), vehicle: saline + alcohol): 105 % of control
T/C (dose: 25.0 mg/kg/injection, schedule: Q01DX009 (ip), vehicle: other): 97 % of control
T/C (dose: 25.0 mg/kg/injection, schedule: Q01DX009 (ip), vehicle: saline + alcohol): 103 % of control
T/C (dose: 50.0 mg/kg/injection, schedule: Q01DX009 (ip), vehicle: other): 102 % of control
T/C (dose: 50.0 mg/kg/injection, schedule: Q01DX009 (ip), vehicle: saline + alcohol): 99 % of control
T/C (dose: 100.0 mg/kg/injection, schedule: Q01DX009 (ip), vehicle: other): 104 % of control
T/C (dose: 100.0 mg/kg/injection, schedule: Q01DX009 (ip), vehicle: saline + alcohol): 107 % of control
T/C (dose: 200.0 mg/kg/injection, schedule: Q01DX009 (ip), vehicle: other): 102 % of control
T/C (dose: 200.0 mg/kg/injection, schedule: Q01DX009 (ip), vehicle: saline + alcohol): 103 % of control
T/C (dose: 400.0 mg/kg/injection, schedule: Q01DX009 (ip), vehicle: other): 96 % of control
T/C (dose: 400.0 mg/kg/injection, schedule: Q01DX009 (ip), vehicle: saline + alcohol): 99 % of control

CC(=O)[C@H]1CC[C@H]2[C@@H]3C[C@H](C)C4=CC(=O)CC[C@]4(C)[C@H]3C(=O)C[C@]12C
T/C [1]: 107 % of control
T/C [2]: 92 % of control
T/C [3]: 94 % of control

CN(C)CC/C=C1\c2ccccc2CN(C)c2ccccc21
T/C [4]: 102 % of control
T/C [5]: 107 % of control
T/C [6]: 94 % of control
T/C [7]: 99 % of control

CC(C)=Cc1ccccc1
T/C [8]: 95 % of control
T/C (dose: 100.0 mg/kg/injection, schedule: Q04DX003 (ip), vehicle: saline with Tween-80): 95 % of control
T/C [9]: 86 % of control
T/C (dose: 200.0 mg/kg/injection, schedule: Q04DX003 (ip), vehicle: saline with Tween-80): 93 % of control

COc1ccc(CC2C(=O)NC(C)C(=O)N(C)C3Cc4ccc(cc4)Oc4cc(ccc4O)CC(C(=O)NC(C)C(=O)NC(C)C(=O)N2C)N(C)C3=O)cc1 (centres undefined)
T/C (dose: 0.25 mg/kg/injection, schedule: Q01DX009 (ip), vehicle: saline with Tween-80): 117 % of control
T/C (dose: 0.5 mg/kg/injection, schedule: Q01DX009 (ip), vehicle: saline with Tween-80): 122 % of control
T/C (dose: 2.0 mg/kg/injection, schedule: Q01DX009 (ip), vehicle: saline with Tween-80): 152 % of control
T/C (dose: 4.0 mg/kg/injection, schedule: Q01DX009 (ip), vehicle: saline with Tween-80): 175 % of control
T/C (dose: 8.0 mg/kg/injection, schedule: Q01DX009 (ip), vehicle: saline with Tween-80): 154 % of control

CCc1cccc[n+]1[O-]
T/C [10]: 96 % of control
T/C (dose: 600.0 mg/kg/injection, schedule: Q01DX009 (ip), vehicle: saline with Tween-80): 96 % of control

COC(=O)/C=C/N1C(=O)c2ccccc2C1=O
T/C [1]: 91 % of control
T/C (dose: 135.0 mg/kg/injection, schedule: Q01DX009 (ip), vehicle: Klucel (hydroxypropylcellulose) (HPC)): 90 % of control
T/C [2]: 95 % of control
T/C (dose: 300.0 mg/kg/injection, schedule: Q01DX009 (ip), vehicle: Klucel (hydroxypropylcellulose) (HPC)): 95 % of control
T/C [3]: 91 % of control

COc1cc2c(cc1OC)C1=CC(=O)N3CCCC34OS(=O)OC14CC2 (centres undefined)
T/C [1]: 110 % of control
T/C [2]: 103 % of control
T/C [3]: 101 % of control

CCCCCCCC(=O)O[C@H]1[C@H]2[C@@H](CC1(C)C)C(=O)[C@]13O[C@H]1C(=O)[C@]1(CO1)[C@]23C
T/C (dose: 0.31 mg/kg/injection, schedule: Q01DX009 (ip), vehicle: Klucel (hydroxypropylcellulose) (HPC)): 98 % of control
T/C (dose: 0.63 mg/kg/injection, schedule: Q01DX009 (ip), vehicle: Klucel (hydroxypropylcellulose) (HPC)): 102 % of control
T/C (dose: 0.63 mg/kg/injection, schedule: Q01DX009 (ip), vehicle: saline with Tween-80): 92 % of control
T/C (dose: 1.25 mg/kg/injection, schedule: Q01DX009 (ip), vehicle: Klucel (hydroxypropylcellulose) (HPC)): 100 % of control
T/C [11]: 89 % of control
T/C (dose: 2.5 mg/kg/injection, schedule: Q01DX009 (ip), vehicle: Klucel (hydroxypropylcellulose) (HPC)): 98 % of control
T/C [12]: 92 % of control
T/C (dose: 5.0 mg/kg/injection, schedule: Q01DX009 (ip), vehicle: Klucel (hydroxypropylcellulose) (HPC)): 90 % of control
T/C (dose: 10.0 mg/kg/injection, schedule: Q01DX009 (ip), vehicle: Klucel (hydroxypropylcellulose) (HPC)): 86 % of control

O=C(O)CC(NC(=O)CP(=O)(O)O)C(=O)O.[NH-]C1CCCCC1[NH-].[Pt+2] (centres undefined)
T/C (dose: 0.4 mg/kg/injection, schedule: Q01DX009 (ip), vehicle: dextrose): 122 % of control
T/C (dose: 0.78 mg/kg/injection, schedule: Q01DX009 (ip), vehicle: dextrose): 154 % of control
T/C (dose: 1.56 mg/kg/injection, schedule: Q01DX009 (ip), vehicle: dextrose): 165 % of control
T/C (dose: 3.0 mg/kg/injection, schedule: Q01DX009 (ip), vehicle: dextrose): 123 % of control
T/C (dose: 3.2 mg/kg/injection, schedule: Q01DX009 (ip), vehicle: dextrose): 163 % of control

COc1cc(C2=NCCc3cc4c(cc32)OCO4)cc(OC)c1OC
T/C [5]: 112 % of control
T/C [6]: 118 % of control
T/C [7]: 104 % of control
T/C (dose: 100.0 mg/kg/injection, schedule: Q01DX009 (ip), vehicle: saline): 101 % of control

C1CCN(CCC2CCNCC2)CC1
T/C [6]: 109 % of control
T/C [7]: 90 % of control

CC(OCc1ccccc1)C(NC(=O)OC(C)(C)C)C(=O)O (centres undefined)
T/C (dose: 6.25 mg/kg/injection, schedule: Q01DX009 (ip), vehicle: saline with Tween-80): 97 % of control
T/C [13]: 98 % of control
T/C [14]: 102 % of control
T/C [15]: 88 % of control and 95 % of control

Nc1nc(=S)c2[nH]c(N=Nc3ccc(S(=O)(=O)O)cc3)nc2[nH]1
T/C (dose: 6.25 mg/kg/injection, schedule: Q04DX003 (ip), vehicle: saline): 107 % of control
T/C (dose: 12.5 mg/kg/injection, schedule: Q04DX003 (ip), vehicle: saline): 109 % of control

Nc1nc(=S)c2n[nH]nc2[nH]1
T/C [13]: 96 % of control
T/C [14]: 108 % of control
T/C [15]: 113 % of control
T/C [8]: 88 % of control

O=[N+]([O-])c1ccc2c(c1)=N/C(=N\c1nc(O)c(O)[nH]1)N=2
T/C [1]: 86 % of control
T/C [2]: 100 % of control
T/C [3]: 103 % of control

c1cncc(C2OCCO2)c1
T/C [8]: 98 % of control
T/C [9]: 89 % of control
T/C [10]: 89 % of control

CC(=O)OC1C(CO)OC2C1Oc1nc(=N)c(F)cn12 (centres undefined)
T/C (dose: 3.13 mg/kg/injection, schedule: Q01DX009 (ip), vehicle: saline): 88 % of control
T/C [4]: 93 % of control
T/C [5]: 90 % of control
T/C [6]: 86 % of control
T/C [7]: 91 % of control

ClCCCCCCCCCCCl
T/C [16]: 111 % of control
T/C [17]: 100 % of control
T/C (dose: 25.0 mg/kg/injection, schedule: Q04DX003 (ip), vehicle: Klucel (hydroxypropylcellulose) (HPC)): 100 % of control
T/C [18]: 95 % of control
T/C (dose: 50.0 mg/kg/injection, schedule: Q04DX003 (ip), vehicle: Klucel (hydroxypropylcellulose) (HPC)): 100 % of control
T/C (dose: 100.0 mg/kg/injection, schedule: Q04DX003 (ip), vehicle: Klucel (hydroxypropylcellulose) (HPC)): 104 % of control

O=C(Oc1ccc(Cl)cc1Cl)c1ccc([N+](=O)[O-])cc1
T/C [17]: 87 % of control
T/C [1]: 86 % of control

CC(=O)O[C@@H]1[C@@H](O)[C@H]2O[C@@H]3C=C(C)CC[C@]3(CO)[C@]1(C)[C@@]21CO1
T/C [11]: 111 % of control
T/C [12]: 103 % of control
T/C (dose: 5.0 mg/kg/injection, schedule: Q01DX009 (ip), vehicle: saline with Tween-80): 116 % of control
T/C (dose: 10.0 mg/kg/injection, schedule: Q01DX009 (ip), vehicle: saline with Tween-80): 100 % of control

COc1cc(-c2ccc(N=Nc3ccc4c(S(=O)(=O)O)cc(S(=O)(=O)O)c(N)c4c3O)c(OC)c2)ccc1N=Nc1ccc2c(S(=O)(=O)O)cc(S(=O)(=O)O)c(N)c2c1O
T/C [16]: 88 % of control
T/C [17]: 97 % of control
T/C [18]: 102 % of control

From PubChem BioAssay AID192 (DTP/NCI, 2004)
